Test results from patent US20250025439A1, “DERIVATIVES OF NIFUROXAZIDE FOR USE IN THE TREATMENT OF MITOCHONDRIAL DISORDERS AND NEURODEGENERATIVE DISEASES” (priority 2021, published 2025).

Tests used:
[1] = test system: CHCHD10^S59L/+ fibroblasts; experiment: Mitochondrial network analysis after STAT3 siRNA transfection; type: cell-based, human; settings: STAT3 siRNA transfected fibroblasts
Description: Cells were incubated with MitoTracker red (Invitrogen) as previously described (Genin et al., EMBO Mol. Med., 2016, 8, 58-72). Fibroblasts were plated on a glass slide in a 60 mm dish. For the mitochondrial staining, the fibroblasts were incubated with MitoTracker Red (Invitrogen) (100 nM) during 15 minutes at 37° C. Then the medium was replaced by fresh medium for two hours at 37° C. The cells were fixed using Paraformaldehyde (Electron Microscopy Science) (4%) diluted in medium, 20 minutes at 37° C. The cells were then washed with PBS and mounted with Prolong Gold Antifade Reagent (Molecular Probes). The slides were analysed using a confocal microscope (Zeiss LSM 880). […] The images were deconvoluted with Huygens Essential Software™ (Scientific Volume Imaging) using a theoretically calculated point spread function (PSF) for each of the dyes. All selected images were iteratively deconvolved with maximum iterations scored 40 and a quality threshold at 0.05. The deconvolved images were used for quantitative mitochondrial network analysis with Huygens Essentiel Software™ with the following standardised set of parameters: threshold=15% and seed=10% for each cell types and garbage=10. The quantitative data were further analysed in Microsoft Excel and GraphPad Prism 8 (GraphPad Software). Mitochondrial network length was quantified for 30 randomly-selected individual cells. […]

OPA1 and Mitofilin = experiment: In situ proximity ligation assay OPA1/IMMT; type: cell-based, human; settings: patient fibroblasts, NFX 5 μM
Description: Fibroblasts were seeded in 16-well Lab-Tek chambers slides (Nunc). For mitochondrial staining, cells were incubated in a 100 nM solution of MitoTracker Red CMXRos (Invitrogen) for 15 min. Cells were fixed with PFA 4% for 20 min at 37° C. and permeabilised with 2% Triton X-100 for 10 min. Then coverslips were saturated with 5% BSA for 45 min at RT. All antibodies were diluted with PBS-BSA 5%. Fibroblasts were incubated in the presence of convenient couple of primary antibodies for 1 h at RT. After PBS washes, incubation with appropriate PLA probe (PLA probe anti rabbit MINUS, PLA probe anti mouse PLUS), hybridization, ligation and amplification were done using the DuoLink In Situ Detection Reagents Green (Olink Biosciences) following manufacturer's instructions. Finally, the samples were mounted on glass slides using Prolong Gold Antifade Reagent (Molecular Probes). Images were captured with a ZEISS LSM 880 confocal laser-scanning microscope and analyzed using Huygens Essential Software™ (Scientific Volume Imaging). Data are represented as mean±SEM. Negative control experiments (with one antibody omitted) were performed in parallel and checked to result in the absence of PLA signal (FIG. 1).

STAT3 = STAT3 (Homo sapiens, UniProt P40763); settings: cited from earlier work
Chain of STAT3 (P40763 whole entry, species assumed): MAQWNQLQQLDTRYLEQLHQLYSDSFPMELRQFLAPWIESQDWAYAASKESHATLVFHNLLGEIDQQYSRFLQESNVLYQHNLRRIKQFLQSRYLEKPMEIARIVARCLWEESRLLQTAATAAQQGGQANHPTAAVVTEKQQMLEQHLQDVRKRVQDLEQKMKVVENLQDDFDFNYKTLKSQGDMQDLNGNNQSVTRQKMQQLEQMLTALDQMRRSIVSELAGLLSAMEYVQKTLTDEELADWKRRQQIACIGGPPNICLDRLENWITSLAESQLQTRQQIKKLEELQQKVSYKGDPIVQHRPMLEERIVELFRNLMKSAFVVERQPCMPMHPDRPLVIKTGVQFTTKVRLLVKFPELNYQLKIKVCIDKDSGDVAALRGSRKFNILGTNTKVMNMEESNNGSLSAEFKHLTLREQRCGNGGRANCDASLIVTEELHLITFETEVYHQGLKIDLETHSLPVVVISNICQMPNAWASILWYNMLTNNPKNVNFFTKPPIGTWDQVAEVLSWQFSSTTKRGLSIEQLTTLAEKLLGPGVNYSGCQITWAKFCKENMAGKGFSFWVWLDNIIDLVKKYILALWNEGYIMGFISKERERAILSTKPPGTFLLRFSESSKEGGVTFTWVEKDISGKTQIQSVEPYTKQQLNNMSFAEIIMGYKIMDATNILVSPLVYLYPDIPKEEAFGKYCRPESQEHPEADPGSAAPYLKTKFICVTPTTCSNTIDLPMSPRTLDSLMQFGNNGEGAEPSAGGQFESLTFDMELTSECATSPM

O=C(N/N=C/c1ccc([N+](=O)[O-])o1)c1ccc(O)cc1 [NFX, (E)-4-hydroxy-N′-((5-nitrofuran-2-yl)methylene)benzohydrazide]
effect on mitochondrial network length after STAT3 depletion [1]: without preventing the positive effect
number of PLA spots OPA1/Mitofilin (OPA1 and Mitofilin): significant increase
inhibition of STAT3 tyrosine phosphorylation (STAT3): potent inhibitor
